Consider two molecules from ChEMBL document CHEMBL1151966, “Okundoperoxide, a bicyclic cyclofarnesylsesquiterpene endoperoxide from Scleria striatinux with antiplasmodial activity” (J Nat Prod, 2009).

≈ marks a conversion by molar mass, not a printed value.

Experiment [1] is described as follows: Cytotoxicity against human erythrocytes. It counts as cell-based. The settings on record: Erythrocyte.
Experiment [2] concerns Plasmodium falciparum. Kind of experiment: Antiplasmodial activity after 24 hrs against chloroquine-resistant Plasmodium falciparum W2 infected human erythrocytes by [3H]hypoxanthine uptake. The format is functional, organism-based.
The subject of experiment [3] is Plasmodium falciparum. Kind of experiment: Antiplasmodial activity after 24 hrs against chloroquine-sensitive Plasmodium falciparum D6 infected human erythrocytes by [3H]hypoxanthine uptake. It counts as functional, organism-based.
Experiment [4] relates to Plasmodium falciparum. Put plainly: Antiplasmodial activity after 24 hrs against drug-sensitive Plasmodium falciparum NF54 infected human erythrocytes by [3H]hypoxanthine uptake. It counts as functional, organism-based.
In experiment [5] the test system is Plasmodium falciparum. Kind of experiment: Antiplasmodial activity after 24 hrs against chloroquine,pyrimethamine-resistant Plasmodium falciparum K1 infected human erythrocytes by [3H]hypoxanthine uptake. It counts as functional, organism-based.

In experiment [1], `COc1cc([C@@H]2c3cc4c(cc3[C@H](O)[C@H]3COC(=O)[C@H]23)OCO4)cc(OC)c1OC` [PODOFILOX] yielded a half-inhibitory concentration (IC50) of 0.007 mg/L (≈ 0.0169 µM).
As for `C/C(=C\CO)[C@H]1C[C@H]2C(C)(C)C(=O)C=C[C@]2(C)OO1` (relative stereo) [OKUNDOPEROXIDE], the IC50 in experiment [2] came to 0.47 mg/L (≈ 1.76 µM); in experiment [1] it was 22.7 mg/L (≈ 85.2 µM); in experiment [3] it was 0.483 mg/L (≈ 1.81 µM); in experiment [4] it was 1.31 mg/L (≈ 4.91 µM); in experiment [5], 1.5 mg/L (≈ 5.62 µM).
